According to patent US20050267166A1, “Continuous dosing regimen” (priority 2004, published 2005):

How the values were obtained:
[1] = test system: intestinal tumors of Apc^Min (Min) mice; test: Apc Min mice spontaneous intestinal tumorigenesis model; type: in vivo; conditions: orally once-a-day for 28 days at 150 mg/kg/day; vehicle controls 73.3
From the text: Apc^Min (Min) mice are models for genetically inherited intestinal cancer. These mice carry a dominant germline mutation in the Apc tumor suppressor gene that predisposes them to the development of numerous (>50) tumors throughout the intestinal tract.
The average tumor number for treated mice was 49.8 compared to 73.3 for vehicle controls. Drug treatment was initiated at an age when the tumors were well-established.

[2] = test system: NCI-H460 human non-small cell lung carcinoma; test: NCI-H460 xenograft model; type: in vivo
From the text: NCI-H460 is a human non-small cell lung carcinoma derived cell line. It is MDR negative, has wild type p53, and contains an oncogenic K-ras mutation.

[3] = test system: MDA-MB-468 breast carcinoma; test: MDA-MB-468 breast flank xenograft model (staged); type: in vivo, human
Experimental: Following inoculation of tumor cells, tumors were passaged three times in mice before using the fragments to generate single cell suspensions. Multiple animals were used as donors. Single cell suspensions were generated by homogenizing the minced tumor tissue in RPMI 1640 media. Cell suspensions were washed three times to remove debris and other foreign materials. Viable cells were counted by trypan blue exclusion technique using a hemocytometer. Mice were injected subcutaneously with 0.5 mL of the cell suspension containing 1×10^6 cells.
For determination of the efficacy of N-(2-((4-hydroxyphenyl)amino)pyrid-3-yl)-4-methoxybenzenesulfonamide in the MDA-MB-468 Breast Flank Xenograft model, tumor cells derived from serially passaged tumor fragments were inoculated subcutaneously in female nude mice on day 0. On day 10, mice bearing established tumors were size matched and grouped at about 231 mm^3.

SC-2 gastric cancer = test: human tumor xenograft in nude mice, SC-2; type: in vivo; conditions: Q1D × 19, 120 mg/kg/day
LC-6 lung cancer = test: human tumor xenograft in nude mice, LC-6; type: in vivo; conditions: Q5D × 5, 450 mg/kg/day
LC-11 lung cancer = test: human tumor xenograft in nude mice, LC-11; type: in vivo; conditions: Q1D × 8, 150 mg/kg/day
LX-1 lung cancer = test: human tumor xenograft in nude mice, LX-1; type: in vivo; conditions: Q1D × 20, 120 mg/kg/day
MX-1 breast cancer = test: human tumor xenograft in nude mice, MX-1; type: in vivo; conditions: Q5D × 5, 450 mg/kg/day
[4] = dose limiting toxicity in cancer subjects, single dose and 5-day repeated dose; type: in vivo, human
Experimental: (2-((4-hydroxyphenyl)amino)pyrid-3-yl)-4-methoxybenzenesulfonamide was evaluated in 57 cancer subjects in single dose (16 subjects) and 5-day repeated dose regimens (41 subjects). The doses administered in the single dose segment were 80 to 480 mg/m^2/day. In the 5-day repeated dose regimen (2-((4-hydroxyphenyl)amino)pyrid-3-yl)-4-methoxybenzenesulfonamide was given at 30 to 240 mg/m^2/day for a single cycle. […] Adverse drug reactions from the single dose and 5-day repeated dose segments included nausea and vomiting, diarrhea, epigastric pain, ileus and evidence of peripheral neuropathy. For the single dose segment, the dose limiting toxicity (DLT) was Grade 3 peripheral neuropathy in 1 of 5 subjects at 480 mg/m^2/day. In the 5-day repeated dose regimen the dose limiting toxicities were Grade 3 peripheral neuropathy in 1 of 4 subjects at 210 mg/m^2/day and Grade 4 intestinal paralysis in 1 of 4 subjects at 210 mg/m^2/day and in 1 of 6 subjects at 240 mg/m^2/day.

[5] = adverse side effects reported in 134 patients; type: in vivo, human; conditions: of 134 patients; 200-300 mg QD, 125-175 mg BID
Experimental: For 134 patients tested, at doses of about 200 mg QD, 250 mg QD, 300 mg QD, 125 mg BID, 150 mg BID, and 175 mg BID, 16 reported anemia, of which 11 were Grades I or II and 5 were Grades (III or IV); 1 reported Grade I or II alpoecia; 8 reported Grade I or II neutropenia; and none reported fluid retention, for which Grade I is defined as mild, Grade II is defined as moderate, Grade III is defined as severe, Grade IV is defined as life threatening.

[6] = tolerability of continuous 21 day once per day dosing in xenograft mice; type: in vivo, nude mice; conditions: 50 mg/kg/day
[7] = test system: M5076 transplantable murine reticulum cell sarcoma
in vivo = conditions: mouse, po
[8] = 5-day repeated dose, 210 mg/m^2/day
[9] = 150 mg/kg orally once a day for 5 days

## COc1ccc(S(=O)(=O)Nc2cccnc2Nc2ccc(O)cc2)cc1 [ABT-751, N-(2-((4-hydroxyphenyl)amino)pyrid-3-yl)-4-methoxybenzenesulfonamide]
[1]
  average tumor number: 49.8
[2]; day 13
  T/C, mean tumor volume: 58%
[2]; in vivo
  ILS (delay in tumor growth): 32%
[2]; in words
  efficacy in the NCI-H460 xenograft model: good efficacy
[3]; 100 and 75 mg/kg/day (5 days on/5 days off)×2, 50 mg/kg/day daily
  antitumor activity as single agent: dose-dependent antitumor activity
[3]; in combination with docetaxel at 33.3 mg/kg/day
  response in combination with docetaxel: greater than additive responses
SC-2 gastric cancer
  T/C (%): 28%
LC-6 lung cancer
  T/C (%): 31%
LC-11 lung cancer
  T/C (%): 93%
LX-1 lung cancer
  T/C (%): 37%
MX-1 breast cancer
  T/C (%): 21%
[4]; [8]
  dose limiting toxicity: Grade 3 peripheral neuropathy, subjects affected: 1 of 4
  dose limiting toxicity: Grade 4 intestinal paralysis, subjects affected: 1 of 4
[4]; 5-day repeated dose, 240 mg/m^2/day
  dose limiting toxicity: Grade 4 intestinal paralysis, subjects affected: 1 of 6
[4]; single dose, 480 mg/m^2/day
  dose limiting toxicity: Grade 3 peripheral neuropathy, subjects affected: 1 of 5
[5]
  patients reporting Grade I or II alopecia: 1
  patients reporting Grade I or II neutropenia: 8
  patients reporting anemia: 16
  patients reporting anemia Grades I or II: 11
  patients reporting anemia Grades III or IV: 5
  patients reporting fluid retention: none
[6]
  adverse side effects: essentially without adverse side effects
[7]; [9]
  ILS (percent increase in life span): 42%
  T/C (tumor mass of test group divided by tumor mass of control group): 13%
[7]; in words
  antitumor activity in the M5076 model: significant antitumor activity
In vivo
  MTD: ~150 mg/kg
